Experimental findings from ChEMBL document CHEMBL5465560, “Selectivity Literature for EUbOPEN Chemogenomic Library” (2024) are described below.

Assay [1] has as its target T1, Phosphatidylinositol 3-kinase C2 domain-containing subunit gamma (Homo sapiens) (UniProt O75747).
T1 sequence (whole entry): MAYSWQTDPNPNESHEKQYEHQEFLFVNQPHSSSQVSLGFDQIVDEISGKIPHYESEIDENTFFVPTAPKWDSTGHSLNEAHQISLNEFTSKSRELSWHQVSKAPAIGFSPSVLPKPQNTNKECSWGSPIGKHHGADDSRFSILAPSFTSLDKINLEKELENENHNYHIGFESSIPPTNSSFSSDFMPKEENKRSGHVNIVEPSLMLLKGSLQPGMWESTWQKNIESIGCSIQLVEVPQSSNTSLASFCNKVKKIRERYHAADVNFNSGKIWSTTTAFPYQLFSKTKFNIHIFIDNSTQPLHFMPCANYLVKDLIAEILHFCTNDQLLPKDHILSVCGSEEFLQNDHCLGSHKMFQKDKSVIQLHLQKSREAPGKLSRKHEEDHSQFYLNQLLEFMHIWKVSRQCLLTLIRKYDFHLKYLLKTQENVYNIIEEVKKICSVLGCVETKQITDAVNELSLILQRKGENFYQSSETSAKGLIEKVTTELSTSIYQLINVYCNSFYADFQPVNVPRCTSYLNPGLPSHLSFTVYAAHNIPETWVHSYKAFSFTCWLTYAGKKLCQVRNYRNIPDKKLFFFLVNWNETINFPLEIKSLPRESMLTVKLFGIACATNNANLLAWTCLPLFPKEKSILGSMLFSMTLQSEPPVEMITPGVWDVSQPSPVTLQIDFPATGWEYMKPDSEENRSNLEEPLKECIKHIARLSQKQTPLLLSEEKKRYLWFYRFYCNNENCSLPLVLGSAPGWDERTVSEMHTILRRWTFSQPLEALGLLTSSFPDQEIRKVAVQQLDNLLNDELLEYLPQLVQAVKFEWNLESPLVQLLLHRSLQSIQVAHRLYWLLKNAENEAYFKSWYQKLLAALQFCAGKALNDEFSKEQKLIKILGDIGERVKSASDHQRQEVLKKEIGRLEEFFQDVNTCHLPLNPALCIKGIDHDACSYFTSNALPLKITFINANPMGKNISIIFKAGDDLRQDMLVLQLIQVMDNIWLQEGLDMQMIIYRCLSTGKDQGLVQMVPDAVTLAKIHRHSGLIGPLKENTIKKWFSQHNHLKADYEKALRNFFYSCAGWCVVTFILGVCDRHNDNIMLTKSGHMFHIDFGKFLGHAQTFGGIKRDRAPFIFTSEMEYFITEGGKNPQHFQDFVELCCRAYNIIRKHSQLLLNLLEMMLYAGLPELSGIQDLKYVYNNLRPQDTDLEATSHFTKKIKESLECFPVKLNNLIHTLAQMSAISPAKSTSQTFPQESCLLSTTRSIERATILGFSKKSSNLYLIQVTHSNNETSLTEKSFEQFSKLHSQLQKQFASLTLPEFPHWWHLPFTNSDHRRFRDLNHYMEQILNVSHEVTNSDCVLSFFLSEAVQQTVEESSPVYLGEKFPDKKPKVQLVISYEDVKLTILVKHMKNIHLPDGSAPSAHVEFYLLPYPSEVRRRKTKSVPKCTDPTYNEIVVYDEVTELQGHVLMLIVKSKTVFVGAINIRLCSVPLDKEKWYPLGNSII
The assay can be described thus: Selectivity interaction (KinomeScan (DiscoverX)) EUB0000229b PIK3C2G. Particulars: at 10 µM.

In assay [2] the target is Tyrosine-protein kinase Srms (Homo sapiens) (UniProt Q9H3Y6). The experiment in a line: Selectivity interaction (KinomeScan (DiscoverX)) EUB0001619a SRMS. Particulars: at 1 µM.
In assay [3] the target is Mitogen-activated protein kinase 7 (Homo sapiens) (UniProt Q13164). The assay can be described thus: Selectivity interaction (ActivX KiNativ screen (ex vivo kinase selectivity in human PBMCs)) EUB0001619a MAPK7. The class given is cell-based. The note with it: PBMC, at 1 µM.
In assay [4] the target is Serine/threonine-protein kinase MRCK gamma (Homo sapiens) (UniProt Q6DT37). The assay can be described thus: Selectivity interaction (KinomeScan (DiscoverX)) EUB0001619a CDC42BPG. Particulars: at 1 µM.
The target of assay [5] is Calcium/calmodulin-dependent protein kinase type 1 (Homo sapiens) (UniProt Q14012). The experiment in a line: Selectivity interaction (ActivX KiNativ screen (kinase selectivity in THP-1 cell lysates)) EUB0000639a CAMK1. Format: subcellular. The note with it: lysate, at 0.2 µM.
In assay [6] the target is Protein polybromo-1 (Homo sapiens) (UniProt Q86U86). The assay can be described thus: Selectivity interaction (Human bromodomain panel (DSF assay)) EUB0000233b PBRM1.
The target of assay [7] is STE20/SPS1-related proline-alanine-rich protein kinase (Homo sapiens) (UniProt Q9UEW8). The assay can be described thus: Selectivity interaction (KinomeScan (DiscoverX)) EUB0000045b STK39.
Assay [8] concerns the target T2, Phosphorylase b kinase gamma catalytic chain, liver/testis isoform (Homo sapiens) (UniProt P15735).
T2 sequence (whole entry): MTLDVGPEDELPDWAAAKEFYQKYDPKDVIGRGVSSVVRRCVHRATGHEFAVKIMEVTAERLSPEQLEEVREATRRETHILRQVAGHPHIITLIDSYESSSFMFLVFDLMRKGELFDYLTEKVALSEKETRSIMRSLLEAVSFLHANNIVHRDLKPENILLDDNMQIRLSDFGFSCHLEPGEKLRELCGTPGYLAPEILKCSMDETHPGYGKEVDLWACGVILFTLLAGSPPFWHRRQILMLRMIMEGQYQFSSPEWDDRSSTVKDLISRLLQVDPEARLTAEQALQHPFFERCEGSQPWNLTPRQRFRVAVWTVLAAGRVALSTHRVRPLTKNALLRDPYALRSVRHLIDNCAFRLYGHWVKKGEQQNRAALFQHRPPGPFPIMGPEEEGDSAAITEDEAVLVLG
The experiment in a line: Selectivity interaction (KinomeScan (DiscoverX)) EUB0000045b PHKG2.

The target in assay [9] is Histone-lysine N-methyltransferase, H3 lysine-36 specific (Homo sapiens) (UniProt Q96L73). The experiment in a line: Selectivity interaction (Methyltransferase screen (radiometric assays, panel of 8 PRMTs, 21 protein lysine methyltransferases, 3 DNA methyltransferases, and one RNA methyltransferase)) EUB0000272b NSD1. The note with it: at 10 µM.

Sequence of Tyrosine-protein kinase Srms (Homo sapiens) (Q9H3Y6 whole entry): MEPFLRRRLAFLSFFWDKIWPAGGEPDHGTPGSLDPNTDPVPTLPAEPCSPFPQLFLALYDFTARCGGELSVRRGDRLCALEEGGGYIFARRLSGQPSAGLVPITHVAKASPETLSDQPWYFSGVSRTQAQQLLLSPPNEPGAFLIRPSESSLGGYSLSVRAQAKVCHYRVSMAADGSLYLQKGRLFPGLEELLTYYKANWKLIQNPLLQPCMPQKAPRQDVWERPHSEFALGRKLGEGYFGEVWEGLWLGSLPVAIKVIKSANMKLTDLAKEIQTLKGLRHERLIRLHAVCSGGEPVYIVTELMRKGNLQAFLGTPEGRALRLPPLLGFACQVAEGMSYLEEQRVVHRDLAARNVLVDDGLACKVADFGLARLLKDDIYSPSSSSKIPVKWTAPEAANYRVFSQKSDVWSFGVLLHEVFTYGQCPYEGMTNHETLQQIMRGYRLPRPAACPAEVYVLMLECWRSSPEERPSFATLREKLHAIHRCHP
Sequence of Protein polybromo-1 (Homo sapiens) (Q86U86 whole entry): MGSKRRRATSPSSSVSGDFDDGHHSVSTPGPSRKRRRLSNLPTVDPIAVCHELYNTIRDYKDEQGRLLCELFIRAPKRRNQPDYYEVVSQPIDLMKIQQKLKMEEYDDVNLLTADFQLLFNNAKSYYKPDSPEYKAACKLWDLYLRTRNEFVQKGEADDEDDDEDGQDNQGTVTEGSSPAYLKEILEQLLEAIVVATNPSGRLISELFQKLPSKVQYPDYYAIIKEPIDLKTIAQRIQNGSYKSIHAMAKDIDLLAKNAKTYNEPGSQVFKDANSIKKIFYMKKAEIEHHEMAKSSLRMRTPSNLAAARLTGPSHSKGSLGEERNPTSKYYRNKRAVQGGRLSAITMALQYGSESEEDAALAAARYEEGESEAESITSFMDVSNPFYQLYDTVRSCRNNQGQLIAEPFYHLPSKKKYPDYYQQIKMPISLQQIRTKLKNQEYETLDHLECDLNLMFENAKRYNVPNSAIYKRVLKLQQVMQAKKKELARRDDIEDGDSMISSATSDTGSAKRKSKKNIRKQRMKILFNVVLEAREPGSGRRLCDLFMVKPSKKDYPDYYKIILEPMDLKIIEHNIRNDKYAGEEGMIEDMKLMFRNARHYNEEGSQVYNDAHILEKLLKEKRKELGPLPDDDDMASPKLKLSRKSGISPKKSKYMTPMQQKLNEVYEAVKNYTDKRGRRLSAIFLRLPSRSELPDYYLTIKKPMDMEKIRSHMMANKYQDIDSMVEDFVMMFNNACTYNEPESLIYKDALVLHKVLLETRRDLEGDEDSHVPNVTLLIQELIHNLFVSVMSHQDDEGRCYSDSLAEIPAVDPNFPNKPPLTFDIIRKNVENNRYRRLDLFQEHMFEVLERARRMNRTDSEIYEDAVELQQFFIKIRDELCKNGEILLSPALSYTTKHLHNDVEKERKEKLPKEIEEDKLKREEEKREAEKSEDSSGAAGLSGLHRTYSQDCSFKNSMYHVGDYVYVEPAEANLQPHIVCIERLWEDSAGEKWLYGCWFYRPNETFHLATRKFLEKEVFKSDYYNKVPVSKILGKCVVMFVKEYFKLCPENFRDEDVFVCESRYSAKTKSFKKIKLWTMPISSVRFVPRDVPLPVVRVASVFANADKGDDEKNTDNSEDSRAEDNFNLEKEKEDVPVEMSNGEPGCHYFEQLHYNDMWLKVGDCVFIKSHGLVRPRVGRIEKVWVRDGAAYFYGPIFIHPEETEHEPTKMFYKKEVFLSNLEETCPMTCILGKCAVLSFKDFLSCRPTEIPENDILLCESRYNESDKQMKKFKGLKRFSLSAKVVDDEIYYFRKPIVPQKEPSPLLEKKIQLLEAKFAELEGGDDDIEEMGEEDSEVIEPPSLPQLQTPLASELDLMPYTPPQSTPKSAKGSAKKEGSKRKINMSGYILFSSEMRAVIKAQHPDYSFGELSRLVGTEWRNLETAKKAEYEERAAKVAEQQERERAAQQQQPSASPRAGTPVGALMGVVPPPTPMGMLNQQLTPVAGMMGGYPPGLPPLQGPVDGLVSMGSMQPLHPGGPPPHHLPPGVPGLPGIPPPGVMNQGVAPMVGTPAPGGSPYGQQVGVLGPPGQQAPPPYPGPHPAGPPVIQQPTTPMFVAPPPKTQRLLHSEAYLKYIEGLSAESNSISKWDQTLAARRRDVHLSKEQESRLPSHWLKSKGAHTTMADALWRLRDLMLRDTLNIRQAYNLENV
Sequence of Mitogen-activated protein kinase 7 (Homo sapiens) (Q13164 2-816 limits assumed): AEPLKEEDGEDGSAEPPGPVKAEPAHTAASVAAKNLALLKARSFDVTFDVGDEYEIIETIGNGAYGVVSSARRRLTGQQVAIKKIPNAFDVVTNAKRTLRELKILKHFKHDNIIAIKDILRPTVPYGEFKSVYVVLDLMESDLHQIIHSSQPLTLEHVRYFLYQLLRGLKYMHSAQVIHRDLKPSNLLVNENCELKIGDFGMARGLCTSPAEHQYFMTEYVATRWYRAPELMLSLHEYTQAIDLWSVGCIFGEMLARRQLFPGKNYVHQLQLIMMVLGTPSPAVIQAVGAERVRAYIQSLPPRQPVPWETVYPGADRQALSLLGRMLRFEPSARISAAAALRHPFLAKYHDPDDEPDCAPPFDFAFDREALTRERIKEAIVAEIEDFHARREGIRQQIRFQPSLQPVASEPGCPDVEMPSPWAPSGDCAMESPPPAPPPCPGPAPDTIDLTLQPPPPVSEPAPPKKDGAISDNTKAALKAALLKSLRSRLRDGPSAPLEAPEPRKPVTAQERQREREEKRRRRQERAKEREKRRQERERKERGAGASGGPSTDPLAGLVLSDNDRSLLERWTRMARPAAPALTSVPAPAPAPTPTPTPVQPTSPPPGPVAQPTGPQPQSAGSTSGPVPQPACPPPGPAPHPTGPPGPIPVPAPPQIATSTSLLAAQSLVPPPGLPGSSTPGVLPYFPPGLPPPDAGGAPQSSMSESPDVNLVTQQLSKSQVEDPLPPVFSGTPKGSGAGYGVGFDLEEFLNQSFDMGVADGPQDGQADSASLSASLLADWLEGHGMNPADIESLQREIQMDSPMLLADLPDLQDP
Sequence of Serine/threonine-protein kinase MRCK gamma (Homo sapiens) (Q6DT37 whole entry): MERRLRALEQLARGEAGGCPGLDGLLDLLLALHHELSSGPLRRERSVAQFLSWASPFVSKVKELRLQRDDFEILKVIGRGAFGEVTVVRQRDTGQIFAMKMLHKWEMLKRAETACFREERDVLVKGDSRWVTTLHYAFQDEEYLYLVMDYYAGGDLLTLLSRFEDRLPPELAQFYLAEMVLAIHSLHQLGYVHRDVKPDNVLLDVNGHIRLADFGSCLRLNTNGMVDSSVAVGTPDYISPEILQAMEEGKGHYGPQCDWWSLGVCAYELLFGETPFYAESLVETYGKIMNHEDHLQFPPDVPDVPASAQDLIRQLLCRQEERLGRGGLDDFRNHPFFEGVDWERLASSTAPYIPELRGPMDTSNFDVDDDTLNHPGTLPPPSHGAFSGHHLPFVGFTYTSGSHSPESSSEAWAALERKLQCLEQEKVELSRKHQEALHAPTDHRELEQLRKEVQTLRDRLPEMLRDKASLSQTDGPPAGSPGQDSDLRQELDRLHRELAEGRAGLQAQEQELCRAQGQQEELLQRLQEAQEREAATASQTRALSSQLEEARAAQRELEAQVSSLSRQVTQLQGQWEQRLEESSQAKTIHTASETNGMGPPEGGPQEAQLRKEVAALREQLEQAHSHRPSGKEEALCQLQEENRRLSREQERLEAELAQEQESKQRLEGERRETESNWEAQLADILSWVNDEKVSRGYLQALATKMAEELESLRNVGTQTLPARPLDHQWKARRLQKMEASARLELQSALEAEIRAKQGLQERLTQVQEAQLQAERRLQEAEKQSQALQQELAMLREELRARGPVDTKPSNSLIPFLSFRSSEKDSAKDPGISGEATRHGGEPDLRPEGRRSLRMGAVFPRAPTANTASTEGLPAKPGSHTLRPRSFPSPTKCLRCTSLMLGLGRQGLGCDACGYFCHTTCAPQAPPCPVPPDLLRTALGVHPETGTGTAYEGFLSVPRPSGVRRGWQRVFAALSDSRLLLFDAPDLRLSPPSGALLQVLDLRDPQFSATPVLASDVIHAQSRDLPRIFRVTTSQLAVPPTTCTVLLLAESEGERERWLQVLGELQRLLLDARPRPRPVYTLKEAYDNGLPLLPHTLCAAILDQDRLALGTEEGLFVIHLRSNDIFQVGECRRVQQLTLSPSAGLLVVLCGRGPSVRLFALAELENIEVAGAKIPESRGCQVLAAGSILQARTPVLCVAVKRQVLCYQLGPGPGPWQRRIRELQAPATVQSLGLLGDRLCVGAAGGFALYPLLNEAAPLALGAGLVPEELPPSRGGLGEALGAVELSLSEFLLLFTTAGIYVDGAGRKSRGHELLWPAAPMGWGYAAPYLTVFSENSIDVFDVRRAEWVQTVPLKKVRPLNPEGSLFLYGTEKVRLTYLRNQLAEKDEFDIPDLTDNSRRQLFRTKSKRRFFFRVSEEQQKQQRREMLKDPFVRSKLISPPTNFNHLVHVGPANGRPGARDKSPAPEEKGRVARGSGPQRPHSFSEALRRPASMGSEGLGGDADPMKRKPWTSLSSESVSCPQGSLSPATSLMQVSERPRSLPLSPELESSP
Sequence of Calcium/calmodulin-dependent protein kinase type 1 (Homo sapiens) (Q14012 whole entry, looked up): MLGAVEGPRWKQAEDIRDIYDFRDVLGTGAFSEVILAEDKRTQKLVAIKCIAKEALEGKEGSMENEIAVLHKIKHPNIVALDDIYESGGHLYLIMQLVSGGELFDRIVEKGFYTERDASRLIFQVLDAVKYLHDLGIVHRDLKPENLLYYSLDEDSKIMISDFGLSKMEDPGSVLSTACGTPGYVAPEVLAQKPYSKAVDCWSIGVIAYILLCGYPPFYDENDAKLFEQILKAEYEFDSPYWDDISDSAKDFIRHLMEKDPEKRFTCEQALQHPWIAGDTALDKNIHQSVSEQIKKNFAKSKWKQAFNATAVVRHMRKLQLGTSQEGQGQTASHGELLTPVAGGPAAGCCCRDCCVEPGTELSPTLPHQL

With `COc1cc(N(C)c2ccnc3ccc(C(F)(F)F)cc23)cc(OC)c1OC`, the % binding in assay [1] was 75%. As to `N#Cc1cccc(-c2c[nH]c3ncnc(N4CCOCC4)c23)c1`, the % of control in assay [2] worked out at 94%; in assay [4], 100%. Further, the % of inhibition in [3] was -6%. Turning to `CC[C@@H]1[C@H](F)C(=O)N[C@@H]1COc1nccc2cc(C(N)=O)c(OC)cc12` [ZIMLOVISERTIB], the % of inhibition in assay [5] is -2.3%. In assay [6], `CN(C)CCCOc1ccc(-c2cc(NCCCn3cccn3)nc(S(C)(=O)=O)n2)cc1` had a dTM below 2 K. With `C=CC(=O)Nc1cc(-n2c(=O)ccc3cnc4ccc(-c5ccc(NS(C)(=O)=O)cc5)cc4c32)ccc1C`, the % of control in assay [7] (at 1 µM) was determined as 68%; in assay [7] (at 10 µM), 100%; in [8] (at 1 µM) it was 74%; in assay [8] (at 10 µM), 88%.

Regarding `Cc1cc(C)cc([C@H]2c3cc(C)ccc3NC(=O)CN2C(=O)c2ccc(Br)s2)c1`, the % of activity in assay [9] was 104%.
